Data as given in patent US10245244B2, “Pharmaceutical formulations for the treatment of pulmonary arterial hypertension” (HEART BIOTECH PHARMA LIMITED, priority 2014, dated 2019).

How the values were obtained:
pulmonary arteries = experiment: U46619 contractile responses of pulmonary arteries; details: control mice (normoxic), FIG. 9a
aorta = experiment: U46619 contractile responses of aorta; details: control mice (normoxic), FIG. 9a

## CCCCC[C@H](O)/C=C/[C@@H]1[C@@H](C/C=C\CCCC(=O)O)[C@H]2CO[C@@H]1C2 [U46619, 9,11-Dideoxy-9α,11α-methanoepoxy prostaglandin F2α]
Pulmonary arteries
  contraction of the pulmonary artery: less contraction
aorta
  contraction of the aorta: significant contraction
